Read-outs that look alike come from different tables or passages of the source.
Molecular target: phosphorylated active hERK2 enzyme (Homo sapiens (Human), UniProt P28482)
Assay: Active Human ERK2 (hERK2) Activity Assay (IMAP-FP)
Type: biochemical
Conditions: 10 point titration, read-out: AERK2 IC50
In short: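 IMAP detection beads in buffer with 24 mM NaCl stopped the reaction, and fluorescence polarization was read after 60 min binding.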

[1] = Table 6, 0.5 nM hERK2, 30 μM ATP
[2] = Table 5, 0.5 nM hERK2, 30 μM ATP

Chain of phosphorylated active hERK2 enzyme (P28482 whole entry): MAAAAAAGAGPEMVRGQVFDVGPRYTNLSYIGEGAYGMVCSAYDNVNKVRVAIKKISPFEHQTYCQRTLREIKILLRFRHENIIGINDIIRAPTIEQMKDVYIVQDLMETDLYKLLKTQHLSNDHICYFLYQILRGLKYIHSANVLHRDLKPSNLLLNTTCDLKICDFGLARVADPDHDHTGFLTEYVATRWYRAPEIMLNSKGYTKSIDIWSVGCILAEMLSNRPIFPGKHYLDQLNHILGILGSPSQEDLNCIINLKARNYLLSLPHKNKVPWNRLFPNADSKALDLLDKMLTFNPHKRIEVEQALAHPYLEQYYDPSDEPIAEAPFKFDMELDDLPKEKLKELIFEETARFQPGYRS

SMILES | IC50 [1] | IC50 [2]
COC(=O)Nc1n[nH]c2cc(NC(=O)N[C@H](C)c3ccccc3)nc(C)c12 [Example 338, methyl [4-methyl-6-({[(1R)-1-phenyl-ethyl]carbamoyl}-amino)-1H-pyrazolo[4,3-c]-pyridin-3-yl]-carbamate] | 16.1 nM | 
COC(=O)Nc1n[nH]c2cc(NC(=O)N[C@@H](c3ccc(F)cc3)C(C)(C)O)ncc12 [Example 390, methyl [6-({[(1S)-1-(4-fluorophenyl)-2-hydroxy-2-methylpropyl]-carbamoyl}amino)-1H-pyrazolo[4,3-c]pyridin-3-yl]-carbamate] | 0.5 nM | 
C[C@@H](NC(=O)Nc1cc2[nH]nc(N3CC(C)(O)C3)c2cn1)c1ccccc1 [Example 92, 1-[3-(3-hydroxy-3-methylazetidin-1-yl)-1H-pyrazolo[4,3-c]-pyridin-6-yl]-3-[(1R)-1-phenylethyl]urea] | 27.3 nM | 
CNc1n[nH]c2cc(NC(=O)N[C@H](c3ccccc3)[C@H]3CCCO3)ncc12 [Example 147, 1-(3-(methylamino)-1H-pyrazolo[4,3-c]pyridin-6-yl)-3-((R)-phenyl((R)-tetrahydrofuran-2-yl)methyl)urea] | 246 nM | 
C[C@@H](NC(=O)Nc1cc2[nH]nc(N[C@H]3CCOC3)c2cn1)c1ccccc1 [Example 77, 1-[(1R)-1-phenylethyl]-3-{3-[(3S)-tetrahydro-furan-3-ylamino]-1H-pyrazolo[4,3-c]-pyridin-6-yl}urea] | 2.1 nM | 
CCNc1n[nH]c2cc(NC(=O)N[C@@H](c3ccc(F)cc3)C(C)(C)O)ncc12 [Example 448, 1-[3-(ethylamino)-1H-pyrazolo[4,3-c]pyridin-6-yl]-3-[(1S)-1-(4-fluorophenyl)-2-hydroxy-2-methylpropyl]urea] | 0.4 nM | 
CCNc1n[nH]c2cc(NC(=O)NC(C)c3ccc(F)c(F)c3)ncc12 (centres unmarked) [Example 251, 1-[1-(3,4-difluoro-phenyl)ethyl]-3-[3-(ethylamino)-1H-pyrazolo[4,3-c]-pyridin-6-yl]urea] | 3.2 nM | 
Nc1n[nH]c2cc(NC(=O)N[C@H](CO)c3ccccc3)ncc12 [Example 375, 1-(3-amino-1H-pyrazolo[4,3-c]-pyridin-6-yl)-3-[(1S)-2-hydroxy-1-phenylethyl]urea] | 2.5 nM | 
COCCS(=O)(=O)Nc1n[nH]c2cc(NC(=O)N[C@H](C)c3ccccc3)ncc12 [Example 54, 2-methoxy-N-[6-({[(1R)-1-phenylethyl]carbamoyl}amino)-1H-pyrazolo[4,3-c]pyridin-3-yl]ethanesulfonamide] |  | 810 nM
C[C@@H](NC(=O)Nc1cc2[nH]nc(NC(=O)OCC(F)F)c2cn1)c1ccc(F)cc1 [Example 405, 2,2-difluoroethyl [6-({[(1R)-1-(4-fluorophenyl)ethyl]carbamoyl}amino)-1H-pyrazolo[4,3-c]pyridin-3-yl]-carbamate] | 21.6 nM | 
COCCOC(=O)Nc1n[nH]c2cc(NC(=O)N[C@H](C)c3ccccc3)ncc12 [Example 221, 2-methoxyethyl [6-({[(1R)-1-phenyl-ethyl]carbamoyl}-amino)-1H-pyrazolo[4,3-c]-pyridin-3-yl]-carbamate] | 6.6 nM | 
CC(CC(C)(C)O)Nc1n[nH]c2cc(NC(=O)N[C@H](C)c3ccccc3)ncc12 (stereo partly drawn) [Example 191, 1-{3-[(3-hydroxy-1,3-dimethylbutyl)-amino]-1H-pyrazolo[4,3-c]-pyridin-6-yl}-3-[(1R)-1-phenylethyl]urea] | 64.3 nM | 
C[C@@H](NC(=O)Nc1cc2[nH]nc(NS(C)(=O)=O)c2cn1)c1ccccc1 [Example 51, N-[6-({[(1R)-1-phenylethyl]carbamoyl}amino)-1H-pyrazolo[4,3-c]pyridin-3-yl]methanesulfonamide] |  | 652 nM
COC(=O)Nc1n[nH]c2cc(NC(=O)N[C@@H](c3ccccc3)C(C)(C)O)ncc12 [Example 389, methyl [6-({[(1S)-2-hydroxy-2-methyl-1-phenyl-propyl]carbamoyl}amino)-1H-pyrazolo[4,3-c]-pyridin-3-yl]-carbamate] | 0.4 nM | 
COC1CN(c2n[nH]c3cc(NC(=O)N[C@H](C)c4ccccc4)ncc23)C1 [Example 22, 1-[3-(3-methoxyazetidin-1-yl)-1H-pyrazolo[4,3-c]pyridin-6-yl]-3-[(1R)-1-phenylethyl]urea] |  | 8.75 nM
COC(=O)Nc1n[nH]c2cc(NC(=O)N[C@H](C)c3cccc(Cl)c3)ncc12 [Example 287, methyl [6-({[(1R)-1-(3-chlorophenyl)-ethyl]carbamoyl}-amino)-1H-pyrazolo[4,3-c]-pyridin-3-yl}-carbamate] | 1 nM | 
COCCNc1n[nH]c2cc(NC(=O)N[C@H](C)c3ccc(F)cc3)ncc12 [Example 374, 1-[(1R)-1-(4-fluorophenyl)ethyl]-3-{3-[(2-methoxy-ethyl)amino]-1H-pyrazolo[4,3-c]-pyridin-6-yl}urea] | 2.8 nM | 
C[C@@H](NC(=O)Nc1cc2[nH]nc(NC3CCC3)c2cn1)c1ccccc1 [Example 185, 1-[3-(cyclobutylamino)-1H-pyrazolo[4,3-c]pyridin-6-yl]-3-[(1R)-1-phenylethyl]urea] | 1.5 nM | 
C[C@@H]1CCN1c1n[nH]c2cc(NC(=O)N[C@H](C)c3ccccc3)ncc12 [Example 91, 1-{3-[(2R)-2-methylazetidin-1-yl]-1H-pyrazolo[4,3-c]-pyridin-6-yl}-3-[(1R)-1-phenylethyl]-urea] | 52 nM | 
CCNc1n[nH]c2cc(NC(=O)NC(c3ccc(F)cc3)C(C)(C)OC)ncc12 (centres unmarked) [Example 430, 1-[3-(ethylamino)-1H-pyrazolo[4,3-c]pyridin-6-yl]-3-[1-(4-fluorophenyl)-2-methoxy-2-methylpropyl]urea] | 0.6 nM | 
COC(=O)Nc1n[nH]c2cc(NC(=O)NCc3c(F)cccc3OC)ncc12 [Example 298, methyl (6-{[(2-fluoro-6-methoxy-benzyl)carbamoyl]-amino}-1H-pyrazolo[4,3-c]-pyridin-3-yl)-carbamate] | 1.2 nM | 
CC(C)(O)[C@@H](NC(=O)Nc1cc2[nH]nc(N3CCC3)c2cn1)c1ccccc1 [Example 104, 1-(3-azetidin-1-yl-1H-pyrazolo[4,3-c]pyridin-6-yl)-3-[(1S)-2-hydroxy-2-methyl-1-phenylpropyl]urea] | 1.6 nM | 
C[C@@H](NC(=O)Nc1cc2[nH]nc(NCCN3CCOCC3)c2cn1)c1ccccc1 [Example 194, 1-{3-[(2-morpholin-4-ylethyl)amino]-1H-pyrazolo[4,3-c]-pyridin-6-yl}-3-[(1R)-1-phenylethyl]urea] | 28.4 nM | 
CC(C)(O)[C@@H](NC(=O)Nc1cc2[nH]nc(NC(=O)N3CC(F)(F)C3)c2cn1)c1ccc(F)cc1 [Example 129, 3,3-difluoro-N-[6-({[(1S)-1-(4-fluorophenyl)-2-hydroxy-2-methylpropyl]-carbamoyl}amino)-1H-pyrazolo[4,3-c]pyridin-3-yl]-azetidine-1-carboxamide] | 0.4 nM | 
C[C@@H](O)[C@@H](NC(=O)Nc1cc2[nH]nc(N3CCc4scnc4C3)c2cn1)c1ccccc1 [Example 64, 1-[3-(6,7-dihydro[1,3]thiazolo-[4,5-c]pyridin-5(4H)-yl)-1H-pyrazolo[4,3-c]pyridin-6-yl]-3-[(1S,2R)-2-hydroxy-1-phenylpropyl]urea] | 5.6 nM | 
COC[C@@H](NC(=O)Nc1cc2[nH]nc(NC3CCOC3)c2cn1)c1ccccc1 (stereo partly drawn) [Example 158, 1-[(1S)-2-methoxy-1-phenylethyl]-3-[3-(tetrahydro-furan-3-ylamino)-1H-pyrazolo[4,3-c]pyridin-6-yl]urea] | 1.1 nM | 

Source: patent publication US9233979B2, “Compounds that are ERK inhibitors” (Merck Sharp & Dohme Corp., priority 2012, dated 2016)
